One molecule from PMC3298469, “A selective and potent CXCR3 antagonist SCH 546738 attenuates the development of autoimmune diseases and delays graft rejection” (BMC Immunology, 2012) can be followed below.

Each structure is given as a SMILES string.

The target of assay [1] is T1, CXCR3 (Homo sapiens, UniProt P49682).
T1 sequence (P49682 1-368): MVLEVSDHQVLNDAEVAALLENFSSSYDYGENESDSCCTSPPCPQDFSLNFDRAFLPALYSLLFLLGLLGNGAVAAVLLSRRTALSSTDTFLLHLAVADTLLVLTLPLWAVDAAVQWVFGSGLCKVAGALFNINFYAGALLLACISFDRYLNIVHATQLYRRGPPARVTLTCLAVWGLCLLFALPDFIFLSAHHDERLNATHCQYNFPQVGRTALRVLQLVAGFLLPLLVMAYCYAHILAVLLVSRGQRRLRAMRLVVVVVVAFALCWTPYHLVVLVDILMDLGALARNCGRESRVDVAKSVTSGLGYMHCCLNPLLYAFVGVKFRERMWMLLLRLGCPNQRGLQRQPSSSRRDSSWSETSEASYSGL
Kind of assay: human activated T cell chemotaxis induced by CXCL9, CXCL10, CXCL11. The format is cell-based. On the set-up: endogenous in cells.
Protocol: The preparation of human activated T cells was performed as described previously [39]. Human peripheral blood lymphocytes were prepared by Ficoll-Hypaque centrifugation, depleted of monocytes, and stimulated for 2 days with 1 µg/ml PHA (Murex Diagnostics, Dartford, U.K.) and 100 U/ml IL-2 (Sigma, St. Louis, MO) in RPMI 1640 supplemented with 10% fetal bovine serum (FBS), 2 mM L-glutamine, 100 µg/ml streptomycin, 100 U/ml penecillin, 1% non-essential amino acids and 2 mM HEPES. Following stimulation, peripheral blood lymphocytes were cultured in above media containing 5% conditioned media (Sigma) for up to 15 days.

For assay [2], the target named is T1, CXCR3. The assay can be described thus: competition binding analysis using 35S-SCH 535390 as tracer (SPA). Further details: expressed in transfected cells; host or cells: mouse pro-B Ba/F3 cells (vector pME18Sneo), membrane preparation. Conditions: competition with 35S-SCH 535390 tracer; multiple experiments; read-out: affinity constant (Ki) of binding to human CXCR3 receptor. As for the experimental part:
The cDNAs encoding human, mouse and rat CXCR3 were generated based on the published sequences: human (NM_001504), mouse (NM_009910), rat (NM_053415). The cDNAs for monkey and dog CXCR3 were cloned in the lab. All CXCR3 cDNAs were cloned into the mammalian expression vector pME18Sneo, a derivative of the SRα expression vector as described previously. IL-3-dependent mouse pro-B cells Ba/F3 were transfected to express CXCR3 of different species and cell membranes were prepared as described previously.
A scintillation proximity assay was used for radioligand competition binding assays as described previously with some modifications. For each assay point, 1 µg of membrane was preincubated for 1 hr with 300 µg wheat germ agglutinin (WGA) coated SPA beads (GE Healthcare Life Sciences) in the binding buffer (50 mM HEPES, 1 mM CaCl2, 5 mM MgCl2, 125 mM NaCl, 0.002% NaN3, 1.0% BSA) at room temperature. The beads were spun down, resuspended in the binding buffer and transferred to a 96-well Isoplate (Wallac, Gaithersburg, MD). The indicated concentrations of ^125I-hCXCL10, ^125I-hCXCL11 or ^35S-SCH 535390 with a series of titrations of SCH 546738 were added to start the reaction. After indicated reaction times at room temperature, the amount of radioactivity bound to the SPA beads was determined with a Wallac 1450 Microbeta counter (Wallac). […]

The next assay deals with CCR7 (Homo sapiens, UniProt P32248). Kind of assay: human activated T cell chemotaxis induced by CCL19. Further details: endogenous in cells. Conditions: 1, 10 or 100 nM compound. The format is cell-based. Here is the method: The preparation of human activated T cells was performed as described previously. Human peripheral blood lymphocytes were prepared by Ficoll-Hypaque centrifugation, depleted of monocytes, and stimulated for 2 days with 1 µg/ml PHA (Murex Diagnostics, Dartford, U.K.) and 100 U/ml IL-2 (Sigma, St. Louis, MO) in RPMI 1640 supplemented with 10% fetal bovine serum (FBS), 2 mM L-glutamine, 100 µg/ml streptomycin, 100 U/ml penecillin, 1% non-essential amino acids and 2 mM HEPES. Following stimulation, peripheral blood lymphocytes were cultured in above media containing 5% conditioned media (Sigma) for up to 15 days.
Human activated T cell chemotaxis assays were performed using 96-well ChemoTx® microplates (Neuro Probe, Inc., Gaithersburg, MD) with a 3 µm filter as per manufacturers' instructions. Activated T cells were washed with RPMI medium twice, and then resuspended in the medium containing 20% FBS. 1.25 × 10^5 cells/reaction were mixed with indicated concentrations of the compound and placed on the filter. The compound and chemokines were mixed and placed in the bottom well of the ChemoTx system. […] The number of migrated cells was measured using the Cell Titer Glo Luminescent Assay from Promega (Madison, WI) as per vendor's instructions. Chemotaxis is expressed as a chemotactic index, which is a ratio versus the one without chemokines (spontaneous migration). […]

Sequence of CCR7 (P32248 25-378): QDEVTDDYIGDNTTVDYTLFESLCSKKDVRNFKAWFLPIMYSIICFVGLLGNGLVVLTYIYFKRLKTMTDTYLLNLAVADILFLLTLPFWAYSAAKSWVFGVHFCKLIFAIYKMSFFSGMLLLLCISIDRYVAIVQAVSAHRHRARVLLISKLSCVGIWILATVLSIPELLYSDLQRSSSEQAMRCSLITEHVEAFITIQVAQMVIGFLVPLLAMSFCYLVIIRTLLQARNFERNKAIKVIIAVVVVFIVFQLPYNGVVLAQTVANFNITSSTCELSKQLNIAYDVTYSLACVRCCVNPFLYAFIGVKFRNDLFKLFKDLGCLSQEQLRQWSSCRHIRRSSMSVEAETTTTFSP

Consider `CC[C@H]1CN(c2nc(N)c(C(N)=O)nc2Cl)CCN1C1CCN(Cc2ccc(Cl)cc2)CC1` [SCH 546738], for which the inhibition at 0.01 µM on CXCR3 [1] (10 nM compound, CXCL9, CXCL10, CXCL11, 20% FBS, read-out: inhibition of T cell chemotaxis induced by all three CXCR3 ligands) is around 90%. The 90% effect concentration (IC90) at CXCR3 [1] (human activated T cells, read-out: IC90 of CXCR3-mediated chemotaxis) was around 10 nM. Besides, the inhibition constant (Ki) on CXCR3 [2] worked out at 0.4 nM. Further, the “effect on T cell chemotaxis induced by the CCR7 ligand CCL19” value on CCR7 is “did not affect”.
